Measured values: patent US20150104392A1, “COMPOSITIONS, BIOMARKERS AND THEIR USE IN THE TREATMENT OF CANCER” (Aptose Biosciences Inc., priority 2013, published 2015)

Assays:
DB = assay: XTT antiproliferative assay; assay type: cell-based; details: Homo sapiens, 120 h, Non-Hodgkin's Lymphoma, 5 days incubation
Method: (§1) Antiproliferative activity of LOR-253 was determined by XTT assay as follows. Adherent cells (2×10^3/well) in 100 μL of growth medium were seeded in 96-well cell culture plates and incubated overnight at 37° C. The medium was removed and replaced with a total volume of 100 μL growth medium containing LOR-253 (or 0.1% DMSO vehicle control), as described in the respective experiments. Suspension cells were plated (4-6×10^3/well) in 50 μL growth medium, and 50 μL growth medium containing LOR-253 (or 0.1% DMSO vehicle control) was added to each well. After incubation of the cells at 37° C. for 5 days, cell viability was quantitated with the use of sodium 3′-[1-(phenylamino-carbonyl)-3,4-tetrazolium}-bis(4-methoxy-6-nitro)benzene sulfonic acid hydrate (XTT) colorimetric assay (Roche). XTT labeling reagent (1 mg/mL) was mixed with electron-coupling reagent, following the manufacturer's instructions, and 50 μL of the mixture was added directly to the cells. The plates were further incubated at 37° C. for 4 h, and the absorbance of each well was measured at 490 nm with a multiwell spectrophotometer (Bio-Tek Instruments Inc.). The data were adjusted relative to the blank and expressed as a percentage of cell growth compared with the vehicle control. (Ref. Huesca et al., Mol Cancer Ther. 2009. 8:2586-96; Lorus publication on LOR-133)

EOL-1 = assay: XTT antiproliferative assay; assay type: cell-based; details: Homo sapiens, EOL1, 120 h; EOL-1, Acute myeloid leukemia; 5 days incubation
Method: as §1

MOLM13 (CD47+) = assay: XTT antiproliferative assay; assay type: cell-based; details: Homo sapiens, MOLM-13, 120 h, Acute myeloid leukemia, 5 days incubation
Method: as §1

MOLT-4 = assay: XTT antiproliferative assay; assay type: cell-based; details: Homo sapiens, 120 h; MOLT-4, Acute lymphoblastic leukemia; 5 days incubation
Method: as §1

NB4 = assay: XTT antiproliferative assay; assay type: cell-based; details: Homo sapiens, NB-4, 120 h; NB4, Acute myeloid leukemia; 5 days incubation
Method: as §1

Raji = assay: XTT antiproliferative assay; assay type: cell-based; details: Homo sapiens, 120 h, Non-Hodgkin's Lymphoma, 5 days incubation
Method: as §1

cancer cell lines = assay: XTT antiproliferative assay, panel of cancer cell lines (FIG. 3); assay type: cell-based
Method: FIG. 3 is a graphical representation of the effect of LOR-253 on proliferation of a number of cancer cell lines in vitro. Cells of various cancer cell lines were incubated with LOR-253 as described in the Examples, and the […] concentrations of various cell lines for 50% of maximal inhibition of cell proliferation (GI50) by LOR-253 were determined and shown in the figure.
as §1, with “Suspension cells were plated (4-6×10^3/well) in 50 μL growth medium, and 50 μL growth medium containing LOR-253 (or 0.1% DMSO vehicle control) was added to each well.” left out, “XTT labeling reagent (1 mg/mL) was mixed with electron-coupling reagent, following the manufacturer's instructions, and 50 μL of the mixture was added directly to the cells.” left out, “(Ref. Huesca et al., Mol Cancer Ther. 2009. 8:2586-96; Lorus publication on LOR-133)” left out

HL-60 [1] = assay: KLF4/p21 induction, quantitative RT-PCR; assay type: cell-based, human; details: 0.5 μM, 16 hours
Method: (§2) To determine if KLF4 and/or p21 expressions are induced by LOR-253, AML cells (THP1, HL-60) were treated with DMSO (vehicle control) or 0.5 μM LOR-253 for 16 hours. Total RNA was extracted using the TRIzol Plus RNA Purification kit (Ambion, Life Technologies), according to the manufacturer's instructions. First strand cDNA was synthesized from 1-2 ug total RNA using random hexamer primers (Invitrogen) and the SuperScript II Reverse Transcriptase kit (Invitrogen). Quantitative RT-PCR was performed in the ABI Prism 7000 Sequence Detection System using cDNAs and human TaqMan Gene Expression Assay primer/probe sets for Krüppel-like factor 4 (KLF4), cyclin-dependent kinase inhibitor 1A (p21) and the ABI TaqMan Universal PCR master mix protocol. Gene expression was normalized with β-actin gene expression in the same sample, and fold changes in KLF4 or p21 were expressed relative to the corresponding expression level in the DMSO treated samples using the comparative CT method.

THP1 [2] = assay: KLF4/p21 induction, quantitative RT-PCR; assay type: cell-based, human; details: 0.5 μM, 16 hours
Method: as §2

HL-60 [3] = assay: Cell cycle analysis, propidium iodide flow cytometry; assay type: cell-based; details: 0.5 μM, 16 hours
Method: (§3) THP1 and HL-60 AML cell lines were treated with DMSO (vehicle control) or 0.5 μM LOR-253 for 16 hours. Cells were washed once in PBS+1% FCS and fixed using ice cold 70% ethanol overnight. Fixed cells were washed twice, resuspended in PI/RNaseA solution, containing 20 μg/mL propidium iodide and 250 μg/mL RNaseA, and stained for 30 minutes at 37° C. Stained cells were analyzed using a BD FACSCalibur flow cytometer.

THP1 [4] = assay: as above; assay type: cell-based; details: 0.5 μM, 16 hours
Method: as §3

THP-1 cells = assay: FITC-Annexin V / propidium iodide flow cytometry (apoptosis); assay type: cell-based; details: 16 hours
Method: THP-1 cells were treated with DMSO, 0.5 or 1 uM of LOR-253 for 16 hours. Cells were washed twice with cold PBS and resuspended Annexin V binding buffer. 1×10^5 cells in 100 μL were stained with FITC-Annexin V and propidium iodide, and incubated for 15 minutes at room temperature. After staining, 400 ul of binding buffer was added and the cells were kept on ice until analyzed on a BD FACSCanto flow cytometer.

HL-60 [5] = assay: Caspase 3 activity, EnzChek Caspase-3 Assay Kit; assay type: cell-based; details: 0.5 μM, 48 hours
Method: (§4) THP1 and HL-60 cells were treated with DMSO (vehicle control) or 0.5 μM LOR-253 for 48 hours. Cell lysates were collected using a 1% Triton-X100 lysis. Caspase 3 activity was measured using EnzChek Caspase-3 Assay Kit #1 (Life Technologies) with 5 μg of cell lysastes according to manufacturer's protocol.

THP1 [6] = assay: Caspase 3 activity, EnzChek Caspase-3 Assay Kit; assay type: cell-based; details: 0.5 μM, 48 hours
Method: as §4

KLF4 protein = assay: Pharmacodynamic response, KLF4 protein level in tumors; assay type: in vivo; details: mice; 1, 5 and 15 mg/kg for 5 consecutive days; 16 hours after last dose
Method: To study the pharmacodynamic (PD) responses, mice were treated for 5 consecutive days with 1, 5, and 15 mg/kg LOR-253. Tumors were measured 16 hours after the last dose, and the KLF-4 protein level was measured.

[7] = Repeat-dose toxicity study; assay type: in vivo; details: dogs, highest dose tested
hERG = hERG (Homo sapiens, UniProt Q12809); assay: hERG tail current density
[8] = GLP blood compatibility studies

Sequence of hERG (Q12809 whole entry): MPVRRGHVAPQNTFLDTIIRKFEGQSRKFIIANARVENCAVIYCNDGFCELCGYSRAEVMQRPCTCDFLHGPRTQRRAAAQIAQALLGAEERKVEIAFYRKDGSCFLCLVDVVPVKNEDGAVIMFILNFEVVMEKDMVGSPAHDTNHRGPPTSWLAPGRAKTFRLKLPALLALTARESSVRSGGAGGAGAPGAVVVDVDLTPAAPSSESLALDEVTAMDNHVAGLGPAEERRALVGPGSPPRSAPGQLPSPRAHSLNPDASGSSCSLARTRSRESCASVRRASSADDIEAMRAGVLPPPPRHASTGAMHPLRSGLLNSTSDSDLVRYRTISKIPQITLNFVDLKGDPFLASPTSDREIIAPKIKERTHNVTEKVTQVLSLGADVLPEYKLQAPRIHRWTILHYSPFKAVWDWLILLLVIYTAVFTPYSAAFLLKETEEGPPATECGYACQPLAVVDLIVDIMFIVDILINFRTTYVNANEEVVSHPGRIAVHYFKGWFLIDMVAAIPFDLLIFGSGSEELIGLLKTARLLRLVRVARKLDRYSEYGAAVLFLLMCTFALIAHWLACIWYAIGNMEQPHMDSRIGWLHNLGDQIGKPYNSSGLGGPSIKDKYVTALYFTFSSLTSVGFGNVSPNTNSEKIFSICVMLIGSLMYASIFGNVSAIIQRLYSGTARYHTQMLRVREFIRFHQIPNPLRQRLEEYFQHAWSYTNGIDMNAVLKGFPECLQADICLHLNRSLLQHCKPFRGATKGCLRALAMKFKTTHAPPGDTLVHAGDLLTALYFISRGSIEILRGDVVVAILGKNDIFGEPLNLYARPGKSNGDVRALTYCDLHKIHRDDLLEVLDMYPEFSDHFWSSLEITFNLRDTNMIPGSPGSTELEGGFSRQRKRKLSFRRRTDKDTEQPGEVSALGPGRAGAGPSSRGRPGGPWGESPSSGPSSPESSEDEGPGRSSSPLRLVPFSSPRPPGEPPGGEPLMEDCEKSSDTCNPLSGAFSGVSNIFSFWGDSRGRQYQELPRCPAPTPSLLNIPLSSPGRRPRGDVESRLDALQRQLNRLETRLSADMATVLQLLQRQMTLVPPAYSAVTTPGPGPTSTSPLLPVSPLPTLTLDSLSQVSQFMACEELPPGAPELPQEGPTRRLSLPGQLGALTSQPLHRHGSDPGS

`Cc1[nH]c2ccc(F)cc2c1-c1nc2c3cccnc3c3ncccc3c2[nH]1` [LOR-253] gave an IC50 (DB) of 99 nM, an IC50 (EOL-1) of 58 nM and an IC50 (MOLM13 (CD47+)) of 130 nM. It also gave an IC50 (MOLT-4) of 70 nM, an IC50 (NB4) of 60 nM and an IC50 (Raji) of 11 nM. The “sensitivity of cell lines to LOR-253” value (cancer cell lines; cell lines of lung, bladder, colon, prostate cancer, melanoma and breast cancer) was “less sensitive”, the “sensitivity of cell lines to LOR-253” value (cancer cell lines; leukemia/lymphoma incl. AML cell lines (HL-60, MV 411, THP-1, HEL92.1.7, CCRF-CEM, MOLT-4, Jurkat, K-562, Ramos, Raji)) was “most sensitive” and the “KLF4 expression (fold change vs DMSO)” value (HL-60 [1]) was “increased expression”. For the same compound, the “p21 expression (fold change vs DMSO)” value (HL-60 [1]) was “increased expression”, the “KLF4 expression (fold change vs DMSO)” value (THP1 [2]) was “increased expression” and the “p21 expression (fold change vs DMSO)” value (THP1 [2]) was “increased expression”. The cell cycle effect (HL-60 [3]) was “G1/S cell cycle arrest”, the cell cycle effect (THP1 [4]) was “G1/S cell cycle arrest” and the “Annexin V staining” value (THP-1 cells; 0.5 or 1 uM) was “elevated Annexin V staining”. For the same compound, the “early apoptotic population (Q3: Annexin V+/PI−)” value (THP-1 cells; increasing concentration (0.5 to 1 uM)) was “increase in the early apoptotic population”, the “Caspase 3 activity” value (HL-60 [5]) was “elevated Caspase 3 activity” and the “Caspase 3 activity” value (THP1 [6]) was “elevated Caspase 3 activity”. The “average KLF4 protein levels in tumors” value (KLF4 protein) was “increased in a dose-dependent manner”, the cardiovascular effects [7] was “no treatment-related cardiovascular effects” and the “inhibition of hERG tail current density” value (hERG) was “no significant inhibition”. For the same compound, the “blood compatibility of IV formulation” value [8] was “confirmed the suitability of IV formulation”.
